We go through six compounds from patent US4738963A, “Method for the treatment of incontinence in mammals” (Beecham Group p.l.c., priority 1985, dated 1988).

SMILES strings stand for the structures. Where two headings read alike, the source gives them in different places. Where only a bound is given, the exact number is not on record here.

Holding throughout (assay type): cell-based
One test deals with Rat isolated portal vein. Description: Rat isolated portal vein: spontaneous contractions and contractions due to added calcium. Particulars: 0.25 h. The protocol:
(1) Rat isolated portal vein.
Male Sprague Dawley rats (250-350) were killed by cervical dislocation. Portal veins (2-3 cm in length) were set up under 0.8-1 g tension in a 10 ml organ bath containing Krebs-Henseleit solution, at 37° C., of the following composition (mM): NaCl 118, NaHCO3 25, glucose 5, KH2 PO4 1.18, KCl 4.69, MgSO4 0.59, CaCl2.H2 O 1.87. The tissue was aerated with a 95% oxygen and 5% carbon dioxide mixture. Isometric tension was recorded using a Devices strain gauge and recorder. Each preparation was allowed 1 h to equilibrate before the addition of test compound. The ability of a compound to inhibit the contractions due to added calcium (3 mM CaCl2) was determined in tissues bathed in Krebs-Henseleit solution containing 0.05 mM CaCl2 (in order to reduce spontaneous contractions). Then percentage inhibition (mean± s.e.m.; 6-9 tissues) of the amplitude of the spontaneous contractions, and contractions due to added calcium, was determined after 15 min contact time with test compound.

For test [1], the system named is Rabbit isolated mesenteric artery. Description: Rabbit isolated mesenteric artery: relaxation of contractions due to KCl. Particulars: Oryctolagus cuniculus. On the procedure:
(2) Rabbit isolated mesenteric artery.
Mesenteric arteries (3 mm rings) were removed from male New Zealand White rabbits and mounted, at a resting tension of 1.5-2.0 g, in a 10 ml organ bath containing a Ringer solution, at 37° C., of the following composition (mM): NaCl 120.8; KCl 5.9; CaCl2 2.5; MgCl2 1.2; HEPES 5.8; glucose 11.5. The bathing solution was bubbled with a 95% oxygen and 5% carbon dioxide mixture. Each preparation was allowed 1-11/2h to equilibrate before the addition of either 30 or 90 mM KCl to contract the tissue. The ability of test compound to relax the sustained contraction due to KCL was determined by assessing the % reduction (mean± s.e.m.; 4-9 tissues) produced by varying concentrations of test compound.

The test system of test [2] is rat urinary bladder (detrusor) strip. As to the kind of experiment: Rat Detrusor Strip Screen: inhibition of electrically induced isometric contractions. The protocol: Rat Detrusor Strip Screen
Male Wistar Charles River rats (Crl: WI BR) weighing 300-350 g were used.
The urinary bladder was removed and a longitudinal strip 3 mm wide was cut from the urethra to the apex of the bladder.
The strip was immediately immersed in a 20 ml bath containing Tyrode with double millimolar concentration of glucose (11.1 instead of 5.55) and with addition of sucrose (13.3 millimolar), kept at 37° C. and aerated with a mixture of O2 95% and CO2 5%.
Tyrode composition was (mM): NaCl 136.8, KCl 2.68, CaCl2 1.80, MgSO4.7H2 O 1.05, NaH2 PO4.H2 O 0.41, NaHCO3 11.9, glucose 11.1 sucrose 13.3. The strip was in direct contact with one of the two platinum electrodes placed on the top and bottom of the organ bath. Placed under an initial tension of 2 g, the strip was then allowed to relax until a baseline of about 1 g. After a 5 min equilibration period isometric contractions were induced by a GRASS S88 2 channel stimulator using the following parameters trains of pulses of 2 sec duration each every 100 sec; square wave pulse of volts (60-70); duration 0.7 ms and 30 Hz.
When the contractions became constant (60-90 min), the strips were exposed to the test compound. The isometric contractions were measured with a Basile DYl force transducer connect to Battaglia Rangoni 4 channel recorder. The results are expressed as per cent of contraction inhibition.

With `CC1(C)Oc2ccc(C#N)cc2[C@@H](N2CCCC2=O)[C@@H]1O` (relative stereo) [Compound 1, 6-cyano-3,4-dihydro-2,2-dimethyl-trans-4-(2-oxo-1-pyrrolidinyl)-2H-benzo[b]pyran-3-ol], the IC50 in the test with Rat isolated portal vein (amplitude of spontaneous contractions, 15 min contact time, read-out: IC50 Spontaneous (contractions)) is 120 nM; with Rat isolated portal vein (contractions due to added calcium (3 mM CaCl2) in Krebs-Henseleit with 0.05 mM CaCl2, 15 min contact time, read-out: IC50 Ca^2+ (3 mM)), 150 nM; in test [1] (sustained contraction due to 30 mM KCl, read-out: IC50 30 mM KCl) it was 510 nM; in test [1] (sustained contraction due to 90 mM KCl, read-out: IC50 90 mM KCl), greater than 10000 nM. For the same compound, in test [2] (Molar Conc 1 × 10^-5), the Mean % inhibition is -46.4%.
On to `CC1(C)Oc2ccc(C#N)cc2[C@@H](N2CCCCC2=O)[C@@H]1O` (relative stereo) [Compound 3], for which the Mean % inhibition in test [2] (Molar Conc 1 × 10^-6) is listed as -34.2%.
`CC(=O)N[C@@H]1c2cc(C#N)ccc2OC(C)(C)[C@H]1O` (relative stereo) [Compound 4, trans-4-N-acetylamino-6-cyano-3,4-dihydro-2,2-dimethyl-2H-benzo[b]pyran-3-ol]: the Mean % inhibition in test [2] (Molar Conc 3 × 10^-5) was -32.9%.
Turning to `CC1(C)Oc2ccc(C#N)cc2[C@@H](N2CCNCC2=O)[C@@H]1O` (relative stereo) [Compound 5, 6-cyano-3,4-dihydro-2,2-dimethyl-trans 4-(2-oxo-1-piperazinyl)-2H-benzo[t]pyran-3-ol], in test [2] (Molar Conc 1 × 10^-5), the Mean % inhibition is given as -37.2%.
`CNC(=O)N[C@@H]1c2cc(C#N)ccc2OC(C)(C)[C@H]1O` (relative stereo) [Compound 6, trans-6-cyano-3,4-dihydro-2,2-dimethyl-4-(N-methylureido)-2H-1-benzo[b]pyran-3-ol]: in test [2] (Molar Conc 3 × 10^-5), the Mean % inhibition is recorded as -44.2%.
For `CC1(C)C=C(N2CCCC2=O)c2cc(C#N)ccc2O1` [Compound 2, 6-cyano-2,2-dimethyl-4-(2-oxo-1-pyrrolidinyl)-2H-1-benzopyran], the Mean % inhibition in test [2] (Molar Conc 1 × 10^-5) was -59.7%.
